This is an account of results in article PMC12168616, “Machine Learning‐Assisted Prediction and Generation of Antimicrobial Peptides” (Small Science, 2025).

Converted amounts (≈) assume the structure as drawn. Where two headings read alike, the source gives them in different places. Ends that are not written are not given here. Peptide text beside a SMILES is read from it.

One experiment relates to A. Baumannii AB5075. Format: cell-based, Acinetobacter baumannii. The source says:
(§1) To evaluate the susceptibility of the different peptide sequences against clinical isolates of various bacterial pathogens, we used the minimum inhibitory concentration (MIC) assay. The MIC measures the efficacy of peptides in inhibiting bacterial growth. The specific MIC values of various peptides against Enterococcus […] ATCC19433, Staphylococcus aureus ATCC25923, Klebsiella pneumoniae ATCC43816, Acinetobacter baumannii AB5075, Pseudomonas aeruginosa PAO1, and Enterobacter species ATCC13048 were determined by measuring optical density at 600 nm (OD600 nm). […] The growth inhibition curves were used to estimate the MIC values.
(§2) Bacteria: The MIC was the lowest concentration of a drug, which inhibited the visible growth of a bacteria and could be determined by reading the absorption at 600 nm (OD600 nm) using a spectrophotometer. The peptides were subjected to antibacterial testing against gram‐positive and gram‐negative pathogens. All the ESKAPE pathogens (E. faecalis ATCC19433, S. aureus ATCC25923, K. pneumoniae ATCC43816, A. baumannii AB5075, P. aeruginosa PAO1, and E. aerogenes ATCC13048) were inoculated from nutrient agar plates to obtain a bacterial suspension by incubating the colony of bacteria in a flask containing 10 mL of Mueller Hinton broth II (MHB) at 37 °C for 24 h with gentle shaking (75 rpm). The bacterial suspensions were then diluted in MHB to 1 × 10^6 colony‐forming units (CFU) of bacteria mL^−1. Next, using serial dilutions in 96‐well plates, different concentrations of each peptide from 1.5–400 μM were prepared. 100 μL of peptide solutions at final concentration ranging between 0.75–200 μM were then added to a 96‐well plate containing 100 μL of diluted bacterial suspension. After 18–24 h incubation at 37 °C, the turbidity of the samples was observed, and the optical density of bacteria was measured using OD600 nm. All assays were performed in duplicates. The MICs were calculated as ≥90% inhibition of bacteria growth compared to the positive control wells.

For a further experiment, the system named is E. Faecalis ATCC19433. It is filed as cell-based, Enterococcus faecalis.
Description: as §1, §2

The subject of another experiment is S. Aureus ATCC25923. It is filed as cell-based, Staphylococcus aureus.
Description: as §1, §2

The subject of the next experiment is E. Aerogenes ATCC13048. Format: cell-based, Enterobacter aerogenes.
Description: as §1, §2

The subject of the next experiment is P. Aeruginosa PAO1. It is filed as cell-based, Pseudomonas aeruginosa.
Description: as §1, §2

The subject of the next experiment is K. Pneumoniae ATCC43816. Format: cell-based, Klebsiella pneumoniae.
Description: as §1, §2

Where [1] appears, read: broth microdilution, Mueller Hinton broth II, peptide 0.75–200 μM, 18–24 h at 37 °C, OD600 nm, MIC = ≥90% inhibition, duplicates.

As for `CC[C@H](C)[C@H](NC(=O)[C@H](CCC(N)=O)NC(=O)[C@@H]1CCCN1C(=O)[C@H](Cc1ccccc1)NC(=O)[C@H](CCCCN)NC(=O)[C@H](CCCCN)NC(=O)CNC(=O)[C@H](Cc1ccccc1)NC(=O)[C@@H](N)Cc1c[nH]c2ccccc12)C(=O)N[C@@H](C)C(=O)N[C@@H](CS)C(=O)N[C@@H](CCCCN)C(=O)N[C@@H](CCCNC(=N)N)C(=O)N[C@@H](CS)C(=O)N[C@@H](CS)C(N)=O` [MLWH 43] (H-WFGKKFPQIACKRCC-NH2), in the experiment with A. Baumannii AB5075 (AB5075), the “MIC A. Baumannii AB5075” value worked out at 25 µM (≈ 45.4 µg/mL).

AIVKKGWIKILAWVF-NH2 [MLWH 36]: in the experiment on E. Faecalis ATCC19433 (ATCC19433), the “MIC E. Faecalis ATCC19433” value is given as 100 µM. The “MIC S. Aureus ATCC25923” value with S. Aureus ATCC25923 (ATCC25923) is given as 6 µM. In the experiment with E. Aerogenes ATCC13048 (ATCC13048), the “MIC E. Aerogenes ATCC13048” value amounted to 100 µM. Also, the “MIC P. Aeruginosa PAO1” value against P. Aeruginosa PAO1 (PAO1) is listed as 200 µM. Also, the “MIC K. Pneumoniae ATCC43816” value in the experiment with K. Pneumoniae ATCC43816 (ATCC43816) came out at 100 µM.

For the compound ALFLGGIWKKLPKAI-NH2 [MLWH02], the “MIC A. Baumannii AB5075” value in the experiment on A. Baumannii AB5075 (AB5075) was determined as 100 µM. In addition, the “MIC P. Aeruginosa PAO1” value against P. Aeruginosa PAO1 (PAO1) stood at 100 µM.

Regarding ALKAKLKFPGKFLFK-NH2 [MLWH 25], the “MIC E. Aerogenes ATCC13048” value against E. Aerogenes ATCC13048 (ATCC13048) is 200 µM. Besides, the “MIC A. Baumannii AB5075” value in the experiment with A. Baumannii AB5075 (AB5075) came out at 100 µM. In addition, the “MIC P. Aeruginosa PAO1” value against P. Aeruginosa PAO1 (PAO1) is recorded as 200 µM. Besides, in the experiment on K. Pneumoniae ATCC43816 (ATCC43816), the “MIC K. Pneumoniae ATCC43816” value was 100 µM.

Turning to AVLIAKLFHKLNKIK-NH2 [MLWH 15], the “MIC E. Faecalis ATCC19433” value in the experiment with E. Faecalis ATCC19433 (ATCC19433) was determined as 200 µM. Moreover, in the experiment with A. Baumannii AB5075 (AB5075), the “MIC A. Baumannii AB5075” value was 100 µM. Further, in the experiment with P. Aeruginosa PAO1 (PAO1), the “MIC P. Aeruginosa PAO1” value is listed as 200 µM. Moreover, the “MIC K. Pneumoniae ATCC43816” value against K. Pneumoniae ATCC43816 (ATCC43816) is on record as 200 µM.

On to AWLKFKKKFGLFAKI-NH2 [MLWH11], for which the “MIC E. Faecalis ATCC19433” value against E. Faecalis ATCC19433 (ATCC19433) is given as 25 µM. Also, the “MIC S. Aureus ATCC25923” value with S. Aureus ATCC25923 (ATCC25923) worked out at 100 µM. In the experiment on E. Aerogenes ATCC13048 (ATCC13048), the “MIC E. Aerogenes ATCC13048” value is 12.5 µM. The “MIC A. Baumannii AB5075” value with A. Baumannii AB5075 (AB5075) is 12.5 µM. Besides, in the experiment on P. Aeruginosa PAO1 (PAO1), the “MIC P. Aeruginosa PAO1” value was 25 µM. In the experiment on K. Pneumoniae ATCC43816 (ATCC43816), the “MIC K. Pneumoniae ATCC43816” value turned out to be 12.5 µM.

On to FLPLIILKFIGKLLP-NH2 [MLWH 19], for which the “MIC E. Faecalis ATCC19433” value with E. Faecalis ATCC19433 (ATCC19433) amounted to 1.5 µM. Also, in the experiment on S. Aureus ATCC25923 (ATCC25923), the “MIC S. Aureus ATCC25923” value is 3 µM. Further, the “MIC A. Baumannii AB5075” value in the experiment with A. Baumannii AB5075 (AB5075) was 200 µM.

In the case of “FNKGKKFFFKFIKWV [MLWH73, peptide generated using algorithm, list 2]”, the “MIC E. Faecalis ATCC19433” value against E. Faecalis ATCC19433 (setting [1]) was 25 µM. Besides, in the experiment with S. Aureus ATCC25923 (setting [1]), the “MIC S. Aureus ATCC25923” value was 25 µM. For the same compound, the “MIC E. Aerogenes ATCC13048” value against E. Aerogenes ATCC13048 (setting [1]) stood at 25 µM. Further, in the experiment on A. Baumannii AB5075 (setting [1]), the “MIC A. Baumannii AB5075” value was 12.5 µM. Moreover, the “MIC P. Aeruginosa PAO1” value in the experiment on P. Aeruginosa PAO1 (setting [1]) stood at 25 µM. In the experiment with K. Pneumoniae ATCC43816 (setting [1]), the “MIC K. Pneumoniae ATCC43816” value was 12.5 µM.

With FVTITLKNFAKKKVG-NH2 [MLWH 28], the “MIC E. Aerogenes ATCC13048” value in the experiment on E. Aerogenes ATCC13048 (ATCC13048) is 200 µM. Besides, the “MIC A. Baumannii AB5075” value in the experiment with A. Baumannii AB5075 (AB5075) came out at 200 µM. In the experiment with K. Pneumoniae ATCC43816 (ATCC43816), the “MIC K. Pneumoniae ATCC43816” value is 200 µM.

Turning to GGAFFKLTQKIIKKA-NH2 [MLWH07], the “MIC A. Baumannii AB5075” value against A. Baumannii AB5075 (AB5075) came out at 50 µM. Besides, the “MIC P. Aeruginosa PAO1” value with P. Aeruginosa PAO1 (PAO1) turned out to be 200 µM. Also, in the experiment on K. Pneumoniae ATCC43816 (ATCC43816), the “MIC K. Pneumoniae ATCC43816” value was determined as 200 µM.

As for GIKIIGIKVATFLKA-NH2 [MLWH03], the “MIC K. Pneumoniae ATCC43816” value with K. Pneumoniae ATCC43816 (ATCC43816) was found to be 200 µM.

On to GKIFGKLFLALIKMW-NH2 [MLWH06], for which the “MIC E. Faecalis ATCC19433” value against E. Faecalis ATCC19433 (ATCC19433) was 12.5 µM. The “MIC S. Aureus ATCC25923” value against S. Aureus ATCC25923 (ATCC25923) worked out at 25 µM. For the same compound, in the experiment with E. Aerogenes ATCC13048 (ATCC13048), the “MIC E. Aerogenes ATCC13048” value is recorded as 200 µM. Further, the “MIC A. Baumannii AB5075” value against A. Baumannii AB5075 (AB5075) is reported as 25 µM. Moreover, the “MIC P. Aeruginosa PAO1” value in the experiment with P. Aeruginosa PAO1 (PAO1) came to 200 µM.

Take GLLTTGKKKLLGIIA-NH2 [MLWH 26]: the “MIC A. Baumannii AB5075” value in the experiment on A. Baumannii AB5075 (AB5075) was found to be 200 µM.

As for GLWKIKLAFGKMFAK-NH2 [MLWH05], the “MIC E. Faecalis ATCC19433” value against E. Faecalis ATCC19433 (ATCC19433) came out at 25 µM. Also, in the experiment with S. Aureus ATCC25923 (ATCC25923), the “MIC S. Aureus ATCC25923” value came out at 100 µM. In addition, the “MIC E. Aerogenes ATCC13048” value in the experiment on E. Aerogenes ATCC13048 (ATCC13048) turned out to be 25 µM. For the same compound, the “MIC A. Baumannii AB5075” value against A. Baumannii AB5075 (AB5075) was 12.5 µM. Moreover, in the experiment on P. Aeruginosa PAO1 (PAO1), the “MIC P. Aeruginosa PAO1” value came to 25 µM. In addition, the “MIC K. Pneumoniae ATCC43816” value against K. Pneumoniae ATCC43816 (ATCC43816) is 25 µM.

As to GPLMGAFIKKLLPKF-NH2 [MLWH 48], the “MIC E. Faecalis ATCC19433” value in the experiment on E. Faecalis ATCC19433 (ATCC19433) came to 200 µM. In addition, the “MIC E. Aerogenes ATCC13048” value in the experiment on E. Aerogenes ATCC13048 (ATCC13048) is 200 µM. For the same compound, the “MIC A. Baumannii AB5075” value in the experiment on A. Baumannii AB5075 (AB5075) stood at 25 µM. Further, the “MIC P. Aeruginosa PAO1” value in the experiment on P. Aeruginosa PAO1 (PAO1) was 100 µM. Besides, the “MIC K. Pneumoniae ATCC43816” value against K. Pneumoniae ATCC43816 (ATCC43816) was 100 µM.
